Measurements taken from a melting point compilation (Tetko et al.; mined from patent text by program, amines drawn as free bases though some values may be those of a salt).

Row | Compound | melting point [°C]
1 | CCOC(=O)C(C)Oc1ccc([N+](=O)[O-])cc1 (stereo unspecified) | 55 to 56
2 | O=C(O)c1cn(-n2cnnc2)c2nc(Cl)c(F)cc2c1=O | 230
3 | CCOC(=O)N(C)CC(N)=S | 91 to 93
4 | O=C(c1ccc(Br)cc1)c1cccc([N+](=O)[O-])c1 | 104 to 105
5 | NC(=O)c1ccc(OCC(O)CCCl)cc1 (stereo unspecified) | 150 to 153
6 | N#Cc1cc(C(F)(F)F)cc(Br)c1-c1nc(C(F)(F)C(F)(F)F)c(Br)c(=O)[nH]1 | 156
7 | C=C(C)C(=O)OCCC#Cc1ccc(-c2ccc(OC(=O)C(=C)C)cc2)cc1 | 80
8 | BrCCc1ccc2c(c1)CCC2 | 57.8 to 58.1
9 | CC(=O)N[C@@H]1c2cc(C#N)ccc2CC(C)(C)[C@H]1O (relative stereo) | 203 to 205
10 | Cc1c(-c2ccncc2)[nH]c(-c2ccncc2)c1C(=O)CC(C)C | 199 to 201
11 | CCN1CCCC(N2C(=O)c3ccc(N)cc3C2=O)C1 (stereo unspecified) | > 300
12 | CC(C)(CO)c1cc(NC(=O)C(C)(C)S(=O)(=O)CCC(F)(F)F)on1 | 162 to 163
13 | O=C(c1cc2ccc(O)cc2[nH]1)N1CCC(Cc2ccc(F)cc2)CC1 | 180 to 182
14 | CCN(C)C(=O)[C@H]1O[C@@H](n2cnc3c(N)ncnc32)[C@H](O)[C@@H]1O | 86 to 90
15 | O=S(=O)(CCCN1CCN(c2ncc(F)cn2)CC1)c1ccc(F)cc1 | 132 to 134
16 | C#CCN(Cc1cc2c(=O)n(C)c(CN3CCOCC3)nc2cc1Cl)c1ccc(C(=O)OC(C)(C)C)cc1 | 140 to 143
17 | N#Cc1ccc(-c2ccc(-c3ccc(C#N)cc3)o2)cc1 | 294 to 295
18 | CC1=Nc2c(-c3ccncc3)c(-c3ccc(F)cc3)nn2C(C)(C)C1 | 171 to 173
19 | C=Cc1ccc(-n2cc(C)c(=O)[nH]c2=O)cc1 | 185
20 | COc1cc2ccc3c(OC)cccc3c2c(OC)c1OC | 80 to 82

Row | Compound | melting point [°C]
21 | N#Cc1ccc(NC(=O)Nc2cccc(C#N)c2)cc1 | 183 to 185
22 | CCOC(=O)c1ccc(C(=O)Sc2cccn3c(=O)c(C(=O)OCC)cnc23)cc1 | 146 to 148
23 | NNC1=NC(=O)C(=Cc2cccc(-c3cc(F)c(O)c(C45CC6CC(CC(C6)C4)C5)c3)c2)S1 | 303 to 308
24 | COc1ccc(Cl)cc1CN(CCO)c1ncnc2c1ncn2C1OC(CO)C(O)C1O (stereo unspecified) | 98 to 100
25 | COc1cc2c(cc1OC)C(C)=[N+]([O-])C(c1ccccc1)N2 (stereo unspecified) | 178 to 182
26 | Cc1ccc2c(c1)C1(COc3cc4c(cc31)OCO4)C(=O)N2 (stereo unspecified) | 269 to 271
27 | CC1OC(n2c(Cl)c(C#N)c3cc(Cl)c(Cl)cc32)C(O)C1O (stereo unspecified) | 227 to 228
28 | COc1ccc(Cl)cc1C(=O)NC1Cc2ccc(S(=O)(=O)NC(=O)NCC3CCCC3)cc2C1 (stereo unspecified) | 194 to 196
29 | COc1ncccc1-c1[nH]c2ccccc2c1C1CCN(S(=O)(=O)c2ccccc2)CC1 | 231 to 234
30 | COC(=O)C1CCC2C3CC(O)C4(O)CC(O)CCC4(C)C3CCC12C (stereo unspecified) | 266 to 268
31 | Cc1cc(O)c(S(=O)C(C)(C)C)c(=O)o1 (stereo unspecified) | 119
32 | CC(C)(C)OC(=O)N[C@]1(C)CC[C@H](CS(=O)(=O)c2ccc(S(C)(=O)=O)cc2)C1(C)C | 200 to 203
33 | Cc1ccc(NCC2CCN(C3CCOCC3)CC2)c(C(=O)Nc2ccc(Cl)cn2)c1 | 178 to 182
34 | Cc1c(NC(=O)c2ccc(OC[C@@H]3CCCO3)cc2)ccc2cc(CNCC(C)(C)C)[nH]c12 | 168
35 | OC1(C2CC2)CSC(=S)N1c1ccccn1 (stereo unspecified) | 95
36 | S=C(Cc1ccc(Cl)cc1)N1CCCCC1 | 82.5 to 83.5
37 | O=C(NCCN1CCN(c2cc(C(F)(F)F)ccn2)CC1)c1ccc(F)cc1 | 159
38 | COC(=O)c1c(C)cc(OC)c(C)c1O | 87 to 90
39 | O=C1NS(=O)(=O)CCC1c1ccc([N+](=O)[O-])cc1F (stereo unspecified) | 218 to 219
40 | Cc1cc(-c2cc(C(F)(F)F)n3ncc(C(=O)Nc4nc(C)c(S(=O)(=O)NC(C)(C)CO)s4)c3n2)ccc1C(F)(F)F | 272

Row | Compound | melting point [°C]
41 | COC(=O)C=Cc1ccc(Br)nc1 | 150
42 | CC(=NO)c1ccnc(N(C)C)c1 | 145 to 148
43 | CCOc1c(C)c(C)c(OC)c(CN(C)CCOc2cc(C)ccc2C(C)C)c1C | 115 to 120
44 | CS(=O)(=O)c1ccc(-c2sc(Br)cc2-c2ccc(F)cc2)cc1 | 141 to 145
45 | FC(F)(F)c1ccc(N=c2ccc3nc4ccccc4sc-3c2)cc1 | 207 to 208
46 | O=[N+]([O-])c1cccc(Nc2nc(Cl)nc(NC3CCCCCC3)n2)c1 | 82
47 | O=C(O)C(=O)N1CN(C(=O)c2c(F)cccc2F)C(=O)N(c2ccc(Oc3ccc(C(F)(F)F)cc3Cl)cc2F)C1 | 67 to 72
48 | CO[C@H](C)C(=O)N[C@H]1CC[C@H](CCN2CCN(c3nccc4c3CCO4)CC2)CC1 | 159
49 | CCc1cc2c(s1)-n1c(nnc1C1CCCCC1)CN=C2c1ccccc1Cl | 116 to 119
50 | CCn1nc(C(F)(F)F)c(CS(=O)(=O)C2=NOC(C)(CCl)C2)c1Cl (stereo unspecified) | 123 to 124
51 | O=C(Nc1ccc(OC(F)(F)F)cc1)NC1CCN(C(=O)CN2CCN(Cc3ccccc3)CC2)CC1 | 178 to 183
52 | CNC1=Nc2ccc(Cl)cc2N(c2ccccc2)C(=O)C1 | 215 to 217
53 | CC(C)OP(=O)(OC(C)C)C(=CC=Cc1ccccc1)P(=O)(OC(C)C)OC(C)C | 103 to 104
54 | CCC(OC)c1cccc2nc3n(c12)CCCN3c1ccc(Cl)cc1Cl (stereo unspecified) | 151 to 153
55 | Cc1cn(-c2c(F)cc3c(=O)c(C(=O)O)cn(C4CC4)c3c2F)cn1 | 215 to 223
56 | COc1cc2c(cc1O)C(Cc1cc(Br)c(OC)cc1[N+](=O)[O-])N(C)CC2 (stereo unspecified) | 146
57 | COc1ccc(Nc2cc(=O)n(-c3ccc(Cl)cc3)nc2-c2nc[nH]n2)cc1 | 251 to 252
58 | CC(C)(C)c1cc(-c2nc3n(c2SC#N)CCS3)cc(C(C)(C)C)c1O | 178 to 179

The next lines start with the values.

Row | melting point [°C] | Compound
59 | 148 to 150 | CCc1c(-c2ccc(OCc3ccccc3)cc2)c2cc(CO)c3cccc1n32
60 | 138 | CCSC(=O)n1c(=NC(=O)N(C)C)sc2ccccc21
61 | 160 to 170 | CCCCNc1cc(C)nc2cn[nH]c12
62 | 149 to 150 | O=C(CCCCCCC(=O)N1CCN(c2cccc(F)c2)CC1)NO
63 | 272 to 273 | COc1ccc2ccc3nc(C(=O)O)cn3c2c1
64 | 153 to 154 | O=C1N=c2cccc(OCCN3CCC(Cc4ccccc4)CC3)c2=N1
65 | 39 to 40 | c1ccc(CSc2nc3ccccc3s2)cc1
66 | 113 to 115 | CCCC(=O)c1cnc2c(C(=O)OC)cccc2c1Nc1ccccc1C
67 | 258 to 261 | CC(=O)n1c2ccc(O)cc2c2c3c(c(-c4ccccc4Cl)cc21)C(=O)NC3=O
68 | 70.8 to 72.1 | COc1ccc2ccccc2c1-c1c(C)c2c(c(C)c1P(=O)(c1ccccc1)c1ccccc1)CCC2
69 | 161 to 163 | CCCCCCOc1cccc(N2CC(=O)NC(=O)N2)c1
70 | 66 to 68 | CCCc1c(O)ccc(C(=O)OC)c1O
71 | 158 to 160 | CCCCCCOc1c(OC)cc(C(=O)NN=C2CCCCC2=Cc2ccccc2)cc1OC
72 | 48 to 49 | O=C1c2ccccc2CCC1C(=O)C(F)(F)F (stereo unspecified)
73 | 173 to 175 | CCCC(=O)c1cc2c(=O)cc(C(=O)OCC)[nH]c2cc1C
74 | 121 to 123 | CC1=CC(O)C(OC(=O)c2cccc(N)c2)C(C)(C)CC1=O (stereo unspecified)
75 | 123 to 124 | COc1ccc(Cc2nc3cc(Cl)cc(Br)c3o2)cc1OC
76 | 97 to 103 | C#CCOc1ccc(-c2ccccc2NC(=O)C(NS(=O)(=O)CC)C(C)C)cc1OC (stereo unspecified)
77 | > 290 | Cc1ccc(C)n1-c1ccc2ccc3c([nH]c(=O)c(=O)n3CC(=O)NCc3ccccc3)c2c1
78 | 131 to 132 | BrCc1cccc2cccc(CBr)c12
79 | 223 | CCN(CC)C(=O)CNC1(c2ccccc2Cl)C(=O)Nc2ccc(Cl)cc21 (stereo unspecified)
80 | 159 to 160 | O=C(CCc1ccccc1)Nc1cc(-c2nnc(SCc3cccc(C(F)(F)F)c3)o2)ccn1

Row | melting point [°C] | Compound
81 | 99 to 101 | COC(=O)c1ccc(Cl)cc1NC(=O)CSc1ccccc1Br
82 | 119 to 120 | COC(=O)c1cccc(Oc2ncccc2C(=O)NCc2ccccc2)c1
83 | 54 | COC(=O)[C@H](Cc1cc(F)cc(F)c1)NC(=O)OCc1ccccc1
84 | 185 | CC(C)c1nc2ccccc2cc1S(=O)(=O)c1ccc(O)cc1
85 | 247 to 249 | C1=c2ccccc2=NCO1
86 | 132 to 134 | C=C(C)CN1CCCC(C(=O)O)=Cc2cc(-c3ccc(OCCOCCCC)cc3)ccc21
87 | 113 to 114 | CCOC(=O)CCCCCc1oc(=O)[nH]c1-c1ccc(Cl)cc1
88 | 341 to 343 | NC(=O)c1nc(-c2cccc(O)c2)nc2c1[nH]c(=O)n2C1CCc2ccccc21 (stereo unspecified)
89 | 161 to 170 | CCCCC(CC)(C(=O)O)C(=O)O
90 | 63 to 65 | OCCc1cc(Br)ccc1O
91 | 211 to 213 | O=C(c1cccs1)c1cnn2c(-c3cccc(-n4cccc4)c3)ccnc12
92 | 154 to 156 | Cn1cc(C(=O)NCc2ccc(Cl)cc2)c(=O)c2cc(COCC[C@@H](O)c3ccccc3)sc21
93 | 72 to 75 | COC(=O)c1nccnc1Nc1ccccc1
94 | 83 to 85 | O=C(Nc1ccccc1N1CCc2ccccc21)C1CC1
95 | 164 to 166 | CCCCc1c2c(nn1CCC)c(N)nc1ccccc12
96 | 200 to 210 | CNC(=O)CSC(c1ccccc1)(c1ccccc1)c1ccccc1
97 | 171 to 176 | CNCCn1nc2c3c(c(Cl)ccc31)C(=O)c1c(OCc3ccccc3)ccc(OCc3ccccc3)c1-2
98 | 165 to 167 | O=C(O)C(O)=CC(=O)c1c(Cc2ccccc2)[nH]c2ccccc12
99 | 80 to 81 | CCCCCc1nc(-c2ccccc2)c(CCC(=O)O)o1
100 | > 380 | O=C(O)c1cc2sccc2nc1C(=O)O
101 | 141 to 143 | Cc1ccccc1C(Nc1ccncc1)c1ccccc1 (stereo unspecified)
